Assay results from patent publication US10668122B2, “Extract of Toona sinensis from supercritical fluid extraction for treating diabetes and metabolic disease, the preparation method and the use thereof” (Metal Industries Research & Development Centre, priority 2009, dated 2020).
Marks after values point to notes of the source that are not given here.

Key:
[1] = tested on: type 2 diabetic mouse model; test: Anti-diabetic effect in vivo, type 2 diabetic mouse model (high-fat diet plus STZ injection); set-up: species or system C57BL/6J mice; details: DM + rosiglitazone 150 μg/kg/day, mean ± SD
Experimental: Eight-week-old male C57BL/6J mice were obtained from BioLASCO Technology (Charles River Taiwan Ltd.). All of the mice received standard animal care under supervision of the Institutional Animal Care and Use Committee of Kaohsiung Medical University, Taiwan. The mice were caged in an air-conditioned animal facility at 23° C. on a 12-h light/dark cycle and were maintained with free access to water and food. Animals were fed either a normal chow diet consisting (as a percentage of total kcal) of 11% fat, 65% carbohydrate, and 24% protein (Maintenance diet 1320, Altromin Spezialfutter GmbH & Co. KG, Germany) or a high-fat diet consisting of 45% fat, 35% carbohydrate, and 20% protein (D12451, Research Diets, Inc., New Brunswick, N.J., USA). After two weeks on either diet, mice were divided into four groups: (i) control (n=7); (ii) high-fat-diet mice with STZ injection (DM; n=5); (iii) high-fat-diet mice with STZ injection plus TS-SCF treatment (DM+TS-SCF; n=6); and (iv) high-fat-diet mice with STZ injection plus rosiglitazone treatment (DM+Rosig; n=4). The mice in groups ii-iv were injected with STZ (45 mg/kg), and both STZ-injected and non-injected animals were kept on their original diets (chow or high-fat) for the duration of the study. TS-SCF (150 mg/kg/day) and rosiglitazone (150 μg/kg/day) treatments via gastric gavage were begun two days after the STZ injection.
Throughout the experiment, body weight and blood glucose from the tail tip were monitored weekly. Blood glucose was detected by the ACCU-CHEK blood glucose meter (Roche Diagnostics, Taipei, Taiwan). Animals were sacrificed after eight weeks of STZ injection and were euthanized by intraperitoneal injection with the anesthetic Zoletil (10 mg/kg) (Virbac, Carros, France). Blood samples were collected from the heart at the time of sacrifice for the measurement of biochemistry data using a Roche Cobas Integra 400 Chemistry Analyzer (Roche Diagnostics, Taipei, Taiwan).
Insulin from plasma were detected by ELISA kits (Crystal Chem, Inc. Downers Grove, USA). The homeostasis model assessment of insulin resistance (HOMA-IR) was calculated using the following formula: fasting blood glucose (mg/dL)×fasting insulin (μU/mL)/405.

[2] = tested on: 3T3-L1 adipocytes; test: In vitro model for anti-diabetic effect: 24-hour glucose consumption from culture medium of 3T3-L1 adipocytes; type: cell-based; details: starting glucose 300 mg/dL
Experimental: Adipose tissue is one of the major sites of postprandial glucose uptake (Watson et al., 2007). To speed up the screening of novel anti-diabetic candidate materials from natural products, an in vitro model was established by comparing the 24-hour glucose consumption from the culture medium of 3T3-L1 adipocytes.
The same amount (5×10^5 cells) of 3T3-L1 preadipocytes (BCRC #60159; Bioresource Collection and Research Center, Taiwan) was seeded and cultured in normal glucose (100 mg/dL) DMEM supplemented with 10% FBS, 100 U/mL of penicillin, and 100 μg/mL of streptomycin in a humidified atmosphere of 95% air and 5% CO2 at 37° C. When the cell density reached 100% confluence, 3T3-L1 preadipocytes were induced to differentiate by treating the culture with 450 mg/dL D-glucose, 0.32 μM insulin, 0.5 mM 3-isobutyl-1-methylxanthine and 1 μM dexamethasone for two days. Then, the culture medium of the differentiated adipocytes was changed to DMEM containing 300 mg/dL D-glucose with or without the administration of TSL extracts. After 24 hours, the anti-diabetic activity was determined by measuring the medium glucose concentration using a Roche Cobas Integra 400 Chemistry Analyzer (Roche Diagnostics, Taipei, Taiwan). The coefficient of variation (CV) of the analyzer was 0.62-0.92% within-run and 1.1-1.2% between days. To confirm whether the in vitro model was sufficient to measure the glucose-lowering effect, insulin and rosiglitazone were used as positive controls.
The methods of in vitro model for determination of anti-diabetic effect are the same as the contents described in EXAMPLE 3. To obtain the high to mid-high polar components of TSL, three different extraction methods were used to produce the following extracts, which were previously reported (Liao et al., 2007; Hsieh et al., 2005; Yang et al., 2003). TSLs were (i) extracted by reverse-osmosis of water (1:4 w/v) by boiling for 30 min and then cooling down without further boiling for two hours at room temperature (Liao et al., 2007); (ii) extracted by soaking in 100° C. boiled water (1:10 w/v) three times, each time for 30 min (Hsieh et al., 2005); and (iii) extracted by boiling in 50% v/v alcohol/water for three hours (Yang et al., 2003). Next, the leaves were removed and the remaining liquids were filtered through filter paper (Advantec, Tokyo, Japan). Afterward, the filtrated solutions were concentrated using an evaporator (rotary vacuum evaporator, vv2000; Heidolph, Schwabach, Germany) under reduced pressure and three crude extracts were obtained, which were named TS-WB (i), TS-WS (ii), and TS-E (iii); the yield of each extract was 6.03%, 5.13%, and 8.36%, respectively.

[3] = insulin 3.2×10^−7 to 3.2×10^−5 M

| Compound | Fasting glucose ([1]; at sacrifice eight weeks after STZ) | Body weight gain [1] [g] | HDL-C [1] [mg/dL] | HOMA-IR [1] | Insulin (fasting plasma) [1] [ng/mL] | LDL-C [1] [mg/dL] | T-CHO (total cholesterol) [1] [mg/dL] | Triglycerol (plasma) [1] | ALT ([1]; plasma) [U/L] | Creatinine ([1]; plasma) | decrease of the glucose concentration in the media ([2]; rosiglitazone 12.5 to 50 μg/mL) [mg/dL] | percentage of glucose consumption ([2]; rosiglitazone 12.5 to 50 μg/mL) | decrease of the glucose concentration in the media [2, 3] [mg/dL] | percentage of glucose consumption [2, 3] |
| --- | --- | --- | --- | --- | --- | --- | --- | --- | --- | --- | --- | --- | --- | --- |
| CN(CCOc1ccc(CC2SC(=O)NC2=O)cc1)c1ccccn1 (centres unmarked) [rosiglitazone] | 205.00 ± 84.87^b mg/dL | 8.10 ± 1.95 | 126.03 ± 32.17 | 14.29 ± 4.60^b | 0.98 ± 0.77 | 9.81 ± 8.29 | 137.65 ± 32.62 | 64.94 ± 4.82^d mg/dL | 62.00 ± 27.00 | 0.54 ± 0.18^e mg/dL | 50 to 80 | 16-27% |  |  |
| insulin |  |  |  |  |  |  |  |  |  |  |  |  | 46 to 57 | 15-18% |
